Source: patent publication US10273242B2, “Compound inhibiting activities of BTK and/or JAK3 kinases” (BEIJING HANMI PHARMACEUTICAL CO., LTD., priority 2013, dated 2019)

Legend:
BTK kinase = molecular target: T1, BTK kinase (Homo sapiens, UniProt Q06187); assay: BTK kinase activity inhibition assay (ADP-Glo); assay type: biochemical; conditions: ATP 50 μM
T1 construct: purchased Invitrogen PV3363
Description: The BTK kinase (purchased from Invitrogen, No.: PV3363) was diluted with reaction buffer (40 mM Tris-HCl, pH 7.5; 20 mM MgCl2, 0.1 mg/ml BSA; 1 mM DTT; 2 mM MnCl2) to 2 times of the final concentration (which is 1.1 ng/μL) and added with 5 μL/well to a 96-well plate. The compounds of the present invention were serial diluted with deionized water to four times (i.e., 40 μM, 4 μM, 0.4 μM, 80 nM, 16 nM, 3.2 nM, respectively) of the final concentrations (10 μM, 1 μM, 0.1 μM, 20 nM, 4 nM, 0.8 nM, respectively), and added at 2.5 μL/well to the test wells of the 96-well plate. After incubation at 25° C. for 10 minutes, ATP (50 μM) (purchased from Promega, No.: V9102) and 0.2 μg/μL of Poly E4Y1 (purchased from Sigma, No.: P0275-25MG) were added with 2.5 μL/well and incubated at 25° C. for 120 minutes. After the reaction was completed, 10 μL of the ADP-Glo reagent (ADP-Glo™ kinase assay kit, purchased from Promega, No.: V9102) was added to each well, and reacted at 25° C. for 40 minutes. Then 20 μL of the ADP-Glo kinase detection reagent was added to each well and reacted at 25° C. for 30 minutes. The kinase activity was detected by luminescence using the ADP-Glo kinase assay kit according to the manufacture's instruction, and IC50 values of the compounds of the present invention were calculated.

JAK3 kinase = molecular target: T2, JAK3 kinase (Homo sapiens, UniProt P52333); assay: JAK3 kinase activity inhibition assay (ADP-Glo); assay type: biochemical; conditions: ATP 10 μM
T2 construct: purchased SignalChem J03-11G
Description: The JAK3 kinase (purchased from SignalChem, No.: J03-11G) was diluted with reaction buffer (40 mM Tris-HCl, pH 7.5; 20 mM MgCl2, 0.1 mg/ml BSA; 1 mM DTT) to 2 times of the final concentration (which is 0.5 ng/μL) and added with 5 μL/well to a 96-well plate. The compounds of the present invention were serial diluted with deionized water to four times (i.e., 40 μM, 4 μM, 0.4 μM, 80 nM, 16 nM, 3.2 nM, respectively) of the final concentrations (10 μM, 1 μM, 0.1 μM, 20 nM, 4 nM, 0.8 nM, respectively), and added with 2.5 μL/well to the test wells of the 96-well plate. After incubation at 25° C. for 10 minutes, 10 μM of ATP (purchased from Promega, No.: V9102) and 0.2 μg/μL of Poly E4Y1 (purchased from Sigma, No.: P0275-25MG) were added at 2.5 μL/well and reacted at 25° C. for 60 minutes. After the reaction was completed, 10 μL of the ADP-Glo reagent (ADP-Glo™ kinase assay kit, purchased from Promega, No.: V9102) was added to each well and reacted at 25° C. for 40 minutes. Then 20 μL of the ADP-Glo kinase detection reagent was added to each well and reacted at 25° C. for 30 minutes. The kinase activity was detected by luminescence using the ADP-Glo kinase assay kit according to the manufacture's instruction, and IC50 values of the compounds of the present invention were calculated.

T2 sequence (P52333 781-1124 limits assumed): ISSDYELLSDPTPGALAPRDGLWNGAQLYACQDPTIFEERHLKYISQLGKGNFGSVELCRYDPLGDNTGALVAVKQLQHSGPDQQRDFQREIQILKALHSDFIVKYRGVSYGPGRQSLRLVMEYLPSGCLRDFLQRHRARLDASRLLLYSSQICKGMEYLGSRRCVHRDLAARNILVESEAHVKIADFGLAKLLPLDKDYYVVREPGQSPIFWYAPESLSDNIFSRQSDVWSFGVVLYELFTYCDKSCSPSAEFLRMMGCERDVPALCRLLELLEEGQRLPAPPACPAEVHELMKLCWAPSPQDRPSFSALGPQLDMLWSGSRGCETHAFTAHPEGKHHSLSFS
T1 sequence (Q06187 whole entry): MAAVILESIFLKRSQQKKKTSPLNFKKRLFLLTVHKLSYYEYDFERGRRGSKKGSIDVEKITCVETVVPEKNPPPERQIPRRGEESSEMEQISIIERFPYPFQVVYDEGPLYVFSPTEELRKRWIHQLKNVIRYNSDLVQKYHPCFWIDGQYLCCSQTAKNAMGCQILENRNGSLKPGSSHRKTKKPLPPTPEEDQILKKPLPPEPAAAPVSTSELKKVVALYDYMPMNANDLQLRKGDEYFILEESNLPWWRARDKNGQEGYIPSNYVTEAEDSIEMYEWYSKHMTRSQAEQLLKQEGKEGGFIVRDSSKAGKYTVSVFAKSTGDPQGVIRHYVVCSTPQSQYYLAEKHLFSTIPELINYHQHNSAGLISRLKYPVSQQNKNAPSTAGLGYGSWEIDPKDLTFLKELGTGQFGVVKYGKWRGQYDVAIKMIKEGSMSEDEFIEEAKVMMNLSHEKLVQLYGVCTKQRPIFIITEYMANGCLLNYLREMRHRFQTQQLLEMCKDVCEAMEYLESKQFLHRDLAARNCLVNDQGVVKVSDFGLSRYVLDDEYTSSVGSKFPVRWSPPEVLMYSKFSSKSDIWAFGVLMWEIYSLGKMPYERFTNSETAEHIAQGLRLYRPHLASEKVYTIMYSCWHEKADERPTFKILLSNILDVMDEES

Compound | IC50 (BTK kinase) [nM] | IC50 (JAK3 kinase) [nM]
C=CC(=O)N1CC(CNc2nc(Nc3cnn(C)c3)nc3sccc23)C1 [Example 99, 1-(3-(((2-((1-methyl-1H-pyrazol-4-yl)amino)thieno[2,3-d]pyrimidin-4-yl)amino)methyl)azetidin-1-yl)prop-2-en-1-one] | 50 to 100 | 10 to 100
C=CC(=O)N[C@H]1CC[C@@H](Nc2nc(Nc3cnn(CCN(C)C)c3)nc3ccsc23)CC1 [Example 17] | 50 to 100 | 
C=CC(=O)N1CCC[C@@H](Nc2nc(Nc3cnn(C)c3)nc3ccoc23)C1 [Example 95] | ≤ 50 | 10 to 100
C=CC(=O)N[C@H]1CC[C@@H](Nc2nc(Nc3ccc(NC4CCN(C)CC4)c(F)c3)nc3ccsc23)CC1 [Example 44] | ≤ 50 | 
C=CC(=O)N1CCC[C@@H](Nc2nc(Nc3cnn(C)c3)nc3sccc23)C1 [Example 103] | ≤ 50 | 100 to 1000
C=CC(=O)N[C@H]1CC[C@@H](Nc2nc(Nc3cn[nH]c3)nc3ccsc23)CC1 [Example 4] | ≤ 50 | 
C=CC(=O)N1CCC[C@@H](Nc2nc(Nc3cc(C)ns3)nc3ccsc23)C1 [Example 82] | ≤ 50 | ≤ 10
C=CC(=O)N1CCC[C@@H](Nc2nc(Nc3cc(C)no3)nc3ccsc23)C1 [Example 85] | 50 to 100 | 10 to 100
C=CC(=O)N1CC(CNc2nc(Nc3cnn(C)c3)nc3ccoc23)C1 [Example 92, 1-(3-(((2-((1-methyl-1H-pyrazol-4-yl)amino)furo[3,2-d]pyrimidin-4-yl)amino)methyl)azetidin-1-yl)prop-2-en-1-one] | ≤ 50 | 100 to 1000
C=CC(=O)N[C@H]1CC[C@@H](Nc2nc(Nc3cnn(C4CCCC4)c3)nc3ccsc23)CC1 [Example 13] | ≤ 50 | 
C=CC(=O)N[C@H]1CC[C@@H](Nc2nc(Nc3ccc(NC4CCN(C)CC4)cc3)nc3ccsc23)CC1 [Example 43] | ≤ 50 | 
C=CC(=O)N[C@H]1CC[C@@H](Nc2nc(Nc3ccc(N4CCN(C)CC4)c(F)c3)nc3ccsc23)CC1 [Example 35] | ≤ 50 | 
C=CC(=O)NC1CCC(Nc2nc(Nc3cnn(C)c3)nc3ccsc23)CC1 (centres unmarked) [Example 2] | ≤ 50 | 
C=CC(=O)N[C@H]1CC[C@@H](Nc2nc(Nc3cc(C)ns3)nc3ccsc23)CC1 [Example 8] | ≤ 50 | 
C=CC(=O)N[C@H]1CC[C@@H](Nc2nc(Nc3ccc(N4CCOCC4)cc3)nc3ccsc23)CC1 [Example 33] | 50 to 100 | 
C=CC(=O)N[C@H]1CC[C@@H](Nc2nc(Nc3cnn(CCN4CCOCC4)c3)nc3ccsc23)CC1 [Example 18] | ≤ 50 | 
C=CC(=O)N[C@H]1CC[C@@H](Nc2nc(Nc3ccc(OCCN4CCN(C)CC4)c(F)c3)nc3ccsc23)CC1 [Example 31] | ≤ 50 | 
C=CC(=O)N[C@H]1CC[C@@H](Nc2nc(Nc3cnn(CCOC)c3)nc3ccsc23)CC1 [Example 15] | ≤ 50 | 
C=CC(=O)N[C@H]1CC[C@@H](Nc2nc(Nc3cnn(C4CCC4)c3)nc3ccsc23)CC1 [Example 12] | ≤ 50 | 
C=CC(=O)N[C@H]1CC[C@@H](Nc2nc(Nc3ccc(NC4CCN(C)CC4)c(C)c3)nc3ccsc23)CC1 [Example 45] | 50 to 100 | 
C=CC(=O)N[C@H]1CC[C@@H](Nc2nc(Nc3cnn(C)c3)nc3ccoc23)CC1 [Example 57, N-(cis-4-((2-((1-methyl-1H-pyrazol-4-yl)amino)furo[3,2-d]pyrimidin-4-yl)amino)cyclohexyl)acrylamide] | ≤ 50 | 
C=CC(=O)N1CC(CNc2nc(Nc3cnn(C)c3)nn3cccc23)C1 [Example 136] | ≤ 50 | 
C=CC(=O)N[C@H]1CC[C@@H](Nc2nc(Nc3ccc(N4CCN(C)CC4)cc3)nc3ccsc23)CC1 [Example 34] | ≤ 50 | 
C=CC(=O)N[C@H]1CC[C@@H](Nc2nc(Nc3ccc(C(=O)N4CCN(C)CC4)c(F)c3)nc3ccsc23)CC1 [Example 51] | ≤ 50 | 
C=CC(=O)N[C@H]1CC[C@@H](Nc2nc(Nc3ccc(N4CCN(C)CC4)c(C)c3)nc3ccsc23)CC1 [Example 36] | 50 to 100 | 
C=CC(=O)N[C@H]1CC[C@@H](Nc2nc(Nc3ccc(OCCN4CCCCC4)c(F)c3)nc3ccsc23)CC1 [Example 30] | 50 to 100 | 
C=CC(=O)N[C@H]1CC[C@@H](Nc2nc(Nc3ccc(C(=O)NC4CCN(C)CC4)c(F)c3)nc3ccsc23)CC1 [Example 52] | 50 to 100 | 
C#CC(=O)N[C@H]1CC[C@@H](Nc2nc(Nc3cnn(C)c3)nc3ccsc23)CC1 [Example 60, N-(cis-4-((2-((1-methyl-1H-pyrazol-4-yl)amino)thieno[3,2-d]pyrimidin-4-yl)amino)cyclohexyl)propynamide] | ≤ 50 | 
C=CC(=O)N[C@H]1CC[C@@H](Nc2nc(Nc3cnn(CCF)c3)nc3ccsc23)CC1 [Example 16] | ≤ 50 | 

Continued, values first:

IC50 (BTK kinase) [nM] | IC50 (JAK3 kinase) [nM] | Compound
≤ 50 | ≤ 10 | C=CC(=O)N1CC(CNc2nc(Nc3cnn(C(C)C)c3)nc3ccsc23)C1 [Example 108]
≤ 50 | 10 to 100 | C=CC(=O)N1CC[C@@H](Nc2nc(Nc3cnn(CCN4CCOCC4)c3)nc3ccsc23)C1 [Example 126]
≤ 50 |  | C=CC(=O)N[C@H]1CC[C@@H](Nc2nc(Nc3ccc(OC4CCN(C)CC4)c(F)c3)nc3ccsc23)CC1 [Example 49]
≤ 50 | 10 to 100 | C=CC(=O)N1CC(CNc2nc(Nc3cnn(COC)c3)nc3ccsc23)C1 [Example 114]
≤ 50 |  | C=CC(=O)N[C@H]1CC[C@@H](Nc2nc(Nc3cnn(C)c3)nc3ccsc23)CC1 [Example 1, N-(cis-4-((2-((1-methyl-1H-pyrazol-4-yl)amino)thieno[3,2-d]pyrimidin-4-yl)amino)cyclohexyl)acrylamide]
≤ 50 |  | C=CC(=O)N[C@H]1CC[C@@H](Nc2nc(Nc3cnn(CCO)c3)nc3ccsc23)CC1 [Example 14]
≤ 50 | 10 to 100 | C=CC(=O)N1CC[C@@H](Nc2nc(Nc3cccs3)nc3ccsc23)C1 [Example 76]
≤ 50 |  | C=CC(=O)N[C@H]1CC[C@@H](Nc2nc(Nc3ccc(NC4CCN(C)CC4)c(Cl)c3)nc3ccsc23)CC1 [Example 46]
≤ 50 | ≤ 10 | C=CC(=O)N1CCC[C@@H](Nc2nc(Nc3cnn(CC)c3)nc3ccsc23)C1 [Example 127]
≤ 50 | ≤ 10 | C=CC(=O)N1CCC[C@@H](Nc2nc(Nc3cc(C)ns3)nc3ccoc23)C1 [Example 96]
≤ 50 | 10 to 100 | C=CC(=O)N1CC[C@@H](Nc2nc(Nc3cnn(C4CCC4)c3)nc3ccsc23)C1 [Example 120]
≤ 50 | 10 to 100 | C=CC(=O)N1CC(CNc2nc(Nc3cnn(C4CCCC4)c3)nc3ccsc23)C1 [Example 112]
≤ 50 |  | C=CC(=O)N[C@H]1CC[C@@H](Nc2nc(Nc3ccc(NC4CCN(C(C)C)CC4)c(F)c3)nc3ccsc23)CC1 [Example 47]
≤ 50 | 10 to 100 | C=CC(=O)N1CC(CNc2nc(Nc3cn[nH]c3)nc3ccsc23)C1 [Example 62]
≤ 50 | 10 to 100 | C=CC(=O)N1CC[C@@H](Nc2nc(Nc3cc(C)ns3)nc3sccc23)C1 [Example 102]
≤ 50 | 10 to 100 | C=CC(=O)N1CCC[C@@H](Nc2nc(Nc3cnn(CCOC)c3)nc3ccsc23)C1 [Example 131]
≤ 50 | 10 to 100 | C=CC(=O)N1CC[C@@H](N(C)c2nc(Nc3cnn(C)c3)nc3ccsc23)C1 [Example 105, (R)-1-(3-(methyl(2-((1-methyl-1H-pyrazol-4-yl)amino)thieno[3,2-d]pyrimidin-4-yl)amino)pyrrolidin-1-yl)prop-2-en-1-one]
≤ 50 |  | C=CC(=O)N[C@H]1CC[C@@H](Nc2nc(Nc3ccc(C(=O)N4CCN(C)CC4)cc3)nc3ccsc23)CC1 [Example 50]
≤ 50 | 10 to 100 | C=CC(=O)N1CC[C@@H](Nc2nc(Nc3cn[nH]c3)nc3ccsc23)C1 [Example 77]
≤ 50 | 10 to 100 | C=CC(=O)N1CC[C@@H](Nc2nc(Nc3cnn(C)c3)nn3cccc23)C1 [Example 138]
≤ 50 | 10 to 100 | C=CC(=O)N1CC(CNc2nc(Nc3cnn(C(C)=O)c3)nc3ccsc23)C1 [Example 116]
